Measurements as given in PubChem BioAssay AID1963868 (Molecular Pharmacology Branch, DTP, NCI, 2024).

Tested on: KRAS PDC tumor spheroids (HUVEC+MSC), viability
Experiment: Anticancer human tumor 254851-301-R-J1-PDC patient-derived colon carcinoma cell line growth inhibition [KRAS2]
Conditions: for IC50: curve of first compound; for viability, T/C: stronger effect = lower value
Summary of the method: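 Combination screen of spheroid viability in tumor-cell co-cultures with endothelial (HUVEC) and mesenchymal stem cell stroma. Each agent was tested in half-log dilutions, topping at clinical Cmax or at 10 microM without a known Cmax.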

[1] = second compound 0.0316 µM, first compound 0.0316 µM
[2] = second compound 0.0316 µM, first compound 0.1 µM
[3] = second compound 0.0316 µM, first compound 0.316 µM
[4] = second compound 0.0316 µM, first compound 1 µM
[5] = second compound 0.0316 µM, first compound 3.16 µM
[6] = second compound 0.0316 µM, first compound 10 µM
[7] = second compound 0.1 µM, first compound 0.0316 µM
[8] = second compound 0.1 µM, first compound 0.1 µM
[9] = second compound 0.1 µM, first compound 0.316 µM
[10] = second compound 0.1 µM, first compound 1 µM
[11] = second compound 0.1 µM, first compound 3.16 µM
[12] = second compound 0.1 µM, first compound 10 µM
[13] = second compound 0.316 µM, first compound 0.0316 µM
[14] = second compound 0.316 µM, first compound 0.1 µM
[15] = second compound 0.316 µM, first compound 0.316 µM
[16] = second compound 0.316 µM, first compound 1 µM
[17] = second compound 0.316 µM, first compound 3.16 µM
[18] = second compound 0.316 µM, first compound 10 µM
[19] = second compound 1 µM, first compound 0.0316 µM
[20] = second compound 1 µM, first compound 0.1 µM
[21] = second compound 1 µM, first compound 0.316 µM
[22] = second compound 1 µM, first compound 1 µM
[23] = second compound 1 µM, first compound 3.16 µM
[24] = second compound 1 µM, first compound 10 µM
[25] = second compound 3.16 µM, first compound 0.0316 µM
[26] = second compound 3.16 µM, first compound 0.1 µM
[27] = second compound 3.16 µM, first compound 0.316 µM
[28] = second compound 3.16 µM, first compound 1 µM
[29] = second compound 3.16 µM, first compound 3.16 µM
[30] = second compound 3.16 µM, first compound 10 µM
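Also: spheroids exposed to compounds for seven days before readout.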
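For viability, T/C in this document: 100% = DMSO vehicle control luminescence of the spheroids.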

SMILES	IC50 (second compound 0.0316 µM) [µM]	IC50 (second compound 0.1 µM) [µM]	IC50 (second compound 0.316 µM) [µM]	IC50 (second compound 1 µM) [µM]	IC50 (second compound 3.16 µM) [µM]	viability, T/C [1] [%]	viability, T/C [2] [%]	viability, T/C [3] [%]	viability, T/C [4] [%]	viability, T/C [5] [%]	viability, T/C [6] [%]	viability, T/C [7] [%]	viability, T/C [8] [%]	viability, T/C [9] [%]	viability, T/C [10] [%]	viability, T/C [11] [%]	viability, T/C [12] [%]	viability, T/C [13] [%]	viability, T/C [14] [%]	viability, T/C [15] [%]	also measured
COc1cc(Nc2ncc3c(n2)-c2ccc(Cl)cc2C(c2c(F)cccc2OC)=NC3)ccc1C(=O)O + C=CC(=O)N1CCN(c2nc(OCC3CCCN3C)nc3c2CCN(c2cccc4cccc(C)c24)C3)CC1CC#N	0.0892	0.0872	0.0891	0.078	0.0346	84.6	41.6	30.3	27.5	17.7	9.36	82.4	40	31.1	27	16.2	8.9	79.4	40.6	32.7	viability, T/C [16]: 24.5%; viability, T/C [17]: 17%; viability, T/C [18]: 7.34%; viability, T/C [19]: 73.5%; viability, T/C [20]: 37.5%; viability, T/C [21]: 32%; viability, T/C [22]: 25.9%; viability, T/C [23]: 16.4%; viability, T/C [24]: 8.35%; viability, T/C [25]: 53.9%; viability, T/C [26]: 22.1%; viability, T/C [27]: 19.8%; viability, T/C [28]: 17%; viability, T/C [29]: 6.88%; viability, T/C [30]: 1.67%
COc1cc2nccc(Oc3ccc(NC(=O)C4(C(=O)Nc5ccc(F)cc5)CC4)cc3)c2cc1OC + C=CC(=O)N1CCN(c2nc(OCC3CCCN3C)nc3c2CCN(c2cccc4cccc(C)c24)C3)CC1CC#N	> 10	9.1	9.15	6.79	0.839	98.5	103	96.2	112	100	52.3	115	111	109	94.1	103	45	111	106	110	viability, T/C [16]: 110%; viability, T/C [17]: 96%; viability, T/C [18]: 45.8%; viability, T/C [19]: 108%; viability, T/C [20]: 104%; viability, T/C [21]: 99.3%; viability, T/C [22]: 98.1%; viability, T/C [23]: 80.5%; viability, T/C [24]: 34.2%; viability, T/C [25]: 56.9%; viability, T/C [26]: 64.8%; viability, T/C [27]: 66.4%; viability, T/C [28]: 47.6%; viability, T/C [29]: 2.41%; viability, T/C [30]: 0.18%
O=C(c1cc(Cc2n[nH]c(=O)c3ccccc23)ccc1F)N1CCN(C(=O)C2CC2)CC1 + C=CC(=O)N1CCN(c2nc(OCC3CCCN3C)nc3c2CCN(c2cccc4cccc(C)c24)C3)CC1CC#N	> 10	> 10	> 10	> 10	> 10	108	111	96	96.4	81.5	84.9	105	106	97.8	104	93.5	92.6	101	99.6	102	viability, T/C [16]: 99.7%; viability, T/C [17]: 98.4%; viability, T/C [18]: 92.7%; viability, T/C [19]: 96.8%; viability, T/C [20]: 98.7%; viability, T/C [21]: 101%; viability, T/C [22]: 92%; viability, T/C [23]: 99.8%; viability, T/C [24]: 92.1%; viability, T/C [25]: 67.8%; viability, T/C [26]: 55.4%; viability, T/C [27]: 72.5%; viability, T/C [28]: 60.1%; viability, T/C [29]: 69.4%; viability, T/C [30]: 69.4%
